According to patent US6545131B1, “Tissue specific prodrug” (priority 1997, dated 2003):
Where two headings read alike, the source gives them in different places.

Columns and labels:
[1] = target: T1, endoplasmic reticulum Ca2+-ATPase (SERCA), SR vesicles from rabbit skeletal muscle (Oryctolagus cuniculus, UniProt P04191); assay: SERCA inhibition: 45Ca2+ uptake to sarcoplasmic reticulum vesicles; format: biochemical
T1 construct: sarcoplasmic reticulum (SR) vesicles prepared from rabbit skeletal muscle; from tissue; host or cells: rabbit skeletal muscle sarcoplasmic reticulum vesicles
T1 sequence (P04191 1-994 isoform P04191-2): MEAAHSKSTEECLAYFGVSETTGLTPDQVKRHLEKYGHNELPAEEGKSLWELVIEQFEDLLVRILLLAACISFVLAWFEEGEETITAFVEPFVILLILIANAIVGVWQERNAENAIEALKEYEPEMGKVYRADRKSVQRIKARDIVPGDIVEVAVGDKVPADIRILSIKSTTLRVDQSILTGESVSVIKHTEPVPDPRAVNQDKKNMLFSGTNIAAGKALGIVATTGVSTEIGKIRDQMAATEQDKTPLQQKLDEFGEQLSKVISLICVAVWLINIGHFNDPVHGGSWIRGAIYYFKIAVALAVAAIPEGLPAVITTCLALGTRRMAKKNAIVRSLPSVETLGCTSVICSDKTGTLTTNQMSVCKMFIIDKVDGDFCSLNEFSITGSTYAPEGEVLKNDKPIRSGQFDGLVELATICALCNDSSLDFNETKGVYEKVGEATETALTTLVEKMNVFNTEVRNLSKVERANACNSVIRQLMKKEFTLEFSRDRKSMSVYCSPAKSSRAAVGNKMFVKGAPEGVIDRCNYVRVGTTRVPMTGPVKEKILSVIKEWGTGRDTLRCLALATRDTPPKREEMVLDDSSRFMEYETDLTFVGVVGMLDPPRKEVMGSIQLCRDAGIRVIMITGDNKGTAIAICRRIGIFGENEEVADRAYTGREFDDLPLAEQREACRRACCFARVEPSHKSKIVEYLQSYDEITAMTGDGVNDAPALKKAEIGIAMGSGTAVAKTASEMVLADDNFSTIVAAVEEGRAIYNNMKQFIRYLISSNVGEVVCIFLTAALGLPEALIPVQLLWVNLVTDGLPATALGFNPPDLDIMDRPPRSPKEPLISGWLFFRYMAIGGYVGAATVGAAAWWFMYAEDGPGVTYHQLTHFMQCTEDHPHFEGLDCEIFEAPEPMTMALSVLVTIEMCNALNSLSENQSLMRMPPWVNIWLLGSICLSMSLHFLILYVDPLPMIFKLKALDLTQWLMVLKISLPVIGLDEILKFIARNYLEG
Protocol: The primary amine-containing thapsigargin analogs of the invention have endoplasmic reticulum Ca^2+-ATPase inhibitory activity. This activity is measured as the concentration of analog needed to inhibit 50% of this ATPase (IC50). The IC50 of the analogs of the invention is desirably at most 500 nM, preferably at most 200 nM, and more preferably at most 50 nM of analog.
The inhibitory potency of thapsigargin and its analogs was determined as the concentration required to produce 50% inhibition (i.e. IC50) of ^45Ca^2+ uptake to sarcoplasmic reticulum (SR) vesicles prepared from rabbit skeletal muscle by the method of De Meis and Hasselbach (J. Biol. Chem., 246: 4759-4763, 1971). The ^45Ca^2+ uptake assay was as described previously (Christensen, et al., FEBS, 335: 345-348, 1993), with the following modifications: 5 μg/ml of SR protein was incubated at 25EC and free Ca^2+ adjusted to 100 nM using 4 min. uptake time. Under these conditions, Ca^2+ could proceed linearly with time for at least 8 minutes. Measurements of Ca^2+ within TSU cells was determined as described previously (Lin et al., The Prostate, 33:201-207, 1997).
(§1) The IC50 results are mean (n=3)±standard error. The LC50 results are mean (n=5)±standard error. The entry “ND” stands for “not determined”. Clonogenic survival not determined above 10 μM for dBTG. Analogs with −boc have a t-butoxycarbonyl (boc) protected amino group.

[2] = Clonogenic survival of TSU-Pr1 cells after 72 hours exposure to TG analogs; format: cell-based, human; details: human; TSU-Pr1, 72 hours exposure; mean (n=5) ± standard error; read-out: LC50 (concentration needed to kill 50% of clonogenic cells)
Protocol: The primary amine-containing thapsigargin analogs of the invention have non-specific toxicity toward cells. This toxicity is measured as the concentration of analog needed to kill 50% of clonogenic cells (LC50). The LC50 of the analogs of the invention is desirably at most 20 μM, preferably at most 5 μM, and more preferably at most 500 nM of analog.
Percentage clonogenic survival of TSU-Pr1 (2×10^5 cells) following 72 hours of exposure to varying concentrations of TG analogs was performed as described in Martikainen et al. Cancer Res., 51, 4693-4700 (1991).
as §1
The androgen responsive PSA-producing LNCaP and androgen independent PSA non-producing TSU-Pr1 are human prostate cancer lines were obtained from ATCC (Rockville, Md.) and maintained by serial passage in RPMI 1640 media containing 10% fetal calf serum with 100 units/ml penicillin G, and 100 units/ml streptomycin sulfate (antibiotics from M.A. Bioproducts, Walkerville, Md.) as standard media in 5% CO2/95% air at 37° C. The origins and characteristics of the LNCaP and TSU-Pr1 cell lines are described in Horoszewicz, et al., Cancer Res., 43:1809-1818, (1980)and Iizumi, et al., J. Urol, 137: 1304-1306, (1987).

[3] = mean (n=3) ± standard error, 5 μg/ml SR protein, free Ca2+ 100 nM, 4 min uptake, read-out: IC50 (50% inhibition of 45Ca2+ uptake to SR vesicles)

Compound	IC50 [1, 3]	CC50 [2]	IC50 [1]
C/C=C(/C)C(=O)O[C@H]1C(C)=C2[C@H]([C@@H]1OC(=O)CCCCCCC)[C@@](C)(OC(C)=O)C[C@H](OC(=O)c1ccc(N)cc1)[C@@]1(O)[C@H]2OC(=O)[C@@]1(C)O [ABT, 8-O-(4-aminobenzoyl)-8-O-debutanoylthapsigargin]	18.4 ± 0.3 nM	4000 ± 300 nM	–
C/C=C(/C)C(=O)O[C@H]1C(C)=C2[C@H]([C@@H]1OC(=O)CCCCCCC)[C@@](C)(OC(C)=O)C[C@H](OC(=O)CCCc1ccc(N)cc1)[C@@]1(O)[C@H]2OC(=O)[C@@]1(C)O [ABuT, 8-O-(4-[4-aminophenyl]butanoyl)-8-O-debutanoylthapsigargin]	18.4 ± 1.4 nM	225 ± 20 nM	–
C/C=C(/C)C(=O)O[C@H]1C(C)=C2[C@H]([C@@H]1OC(=O)CCCCCCC)[C@@](C)(OC(C)=O)C[C@H](OC(=O)CCCc1ccc(NC(=O)OC(C)(C)C)cc1)[C@@]1(O)[C@H]2OC(=O)[C@@]1(C)O [ABuT-boc, 8-O-(4-[4-t-butoxycarbonylaminophenyl]butanoyl)-8-O-debutanoylthapsigargin]	–	–	14.4 ± 0.8 nM
C/C=C(/C)C(=O)O[C@H]1C(C)=C2[C@H]([C@@H]1OC(=O)CCCCCCC)[C@@](C)(OC(C)=O)C[C@H](OC(=O)/C=C/c1ccc(NC(=O)OC(C)(C)C)cc1)[C@@]1(O)[C@H]2OC(=O)[C@@]1(C)O [ACT-boc, 8-O-(4-t-butoxycarbonylaminocinnamoyl)-8-O-debutanoylthapsigargin]	20.3 ± 0.2 nM	1900 ± 100 nM	–
C/C=C(/C)C(=O)O[C@H]1C(C)=C2[C@H]([C@@H]1OC(=O)CCCCCCC)[C@@](C)(OC(C)=O)C[C@H](OC(=O)CCc1ccc(N)cc1)[C@@]1(O)[C@H]2OC(=O)[C@@]1(C)O [APT, 8-O-(3-[4-aminophenyl]propionyl)-8-O-debutanoylthapsigargin]	16.2 ± 0.9 nM	275 ± 60 nM	–
C/C=C(/C)C(=O)O[C@H]1C(C)=C2[C@H]([C@@H]1OC(=O)CCCCCCC)[C@@](C)(OC(C)=O)C[C@H](OC(=O)CCc1ccc(NC(=O)OC(C)(C)C)cc1)[C@@]1(O)[C@H]2OC(=O)[C@@]1(C)O [APT-boc, 8-O-(3-[4-t-butoxycarbonylaminophenyl]propionyl)-8-O-debutanoylthapsigargin]	21.2 ± 0.8 nM	870 ± 15 nM	–
C/C=C(/C)C(=O)O[C@H]1C(C)=C2[C@H]([C@@H]1OC(=O)CCCCCCC)[C@@](C)(OC(C)=O)C[C@H](OC(=O)CCCC(=O)Nc1ccc(C)c(N)c1)[C@@]1(O)[C@H]2OC(=O)[C@@]1(C)O [GDT, 8-O-{4-(N-[3-amino-4-methylphenyl]-carboxamido)butanoyl}-8-O-debutanoylthapsigarg in]	316 ± 23 nM	16600 ± 400 nM	–
C/C=C(/C)C(=O)O[C@H]1C(C)=C2[C@H]([C@@H]1OC(=O)CCCCCCC)[C@@](C)(OC(C)=O)C[C@H](OC(=O)CCCCCC(=O)Nc1ccc(C)c(N)c1)[C@@]1(O)[C@H]2OC(=O)[C@@]1(C)O [PDT, 8-O-{6-(N-[3-amino-4-methylphenyl]-carboxamido)hexanoyl}-8-O-debutanoylthapsigargin]	17.7 ± 2.4 nM	3100 ± 200 nM	–
C/C=C(/C)C(=O)O[C@H]1C(C)=C2[C@H]([C@@H]1OC(=O)CCCCCCC)[C@@](C)(OC(C)=O)C[C@H](OC(=O)CCC(=O)Nc1ccc(C)c(N)c1)[C@@]1(O)[C@H]2OC(=O)[C@@]1(C)O [SDT, 8-O-{3-(N-[3-amino-4-methylphenyl]-carboxamido)propanoyl}-8-O-debutanoylthapsigargin]	1280 ± 91 nM	> 25000 nM	–
